Patent publication US20010044151A1, “Ligands for modulating the expression of exogenous genes via an ecdysone receptor complex” (priority 1998, published 2001)
Where two headings read alike, the source gives them in different places.

Target: T1, ecdysteroid receptor complex in Drosophila Kc cell cytosolic extract (Drosophila melanogaster, UniProt P34021)
T1 construct: The supernatant, containing the cytosolic protein extract; endogenous in cells; host or cells: Drosophila Kc167 cells, cytosolic extract
T1 sequence (P34021 1-878): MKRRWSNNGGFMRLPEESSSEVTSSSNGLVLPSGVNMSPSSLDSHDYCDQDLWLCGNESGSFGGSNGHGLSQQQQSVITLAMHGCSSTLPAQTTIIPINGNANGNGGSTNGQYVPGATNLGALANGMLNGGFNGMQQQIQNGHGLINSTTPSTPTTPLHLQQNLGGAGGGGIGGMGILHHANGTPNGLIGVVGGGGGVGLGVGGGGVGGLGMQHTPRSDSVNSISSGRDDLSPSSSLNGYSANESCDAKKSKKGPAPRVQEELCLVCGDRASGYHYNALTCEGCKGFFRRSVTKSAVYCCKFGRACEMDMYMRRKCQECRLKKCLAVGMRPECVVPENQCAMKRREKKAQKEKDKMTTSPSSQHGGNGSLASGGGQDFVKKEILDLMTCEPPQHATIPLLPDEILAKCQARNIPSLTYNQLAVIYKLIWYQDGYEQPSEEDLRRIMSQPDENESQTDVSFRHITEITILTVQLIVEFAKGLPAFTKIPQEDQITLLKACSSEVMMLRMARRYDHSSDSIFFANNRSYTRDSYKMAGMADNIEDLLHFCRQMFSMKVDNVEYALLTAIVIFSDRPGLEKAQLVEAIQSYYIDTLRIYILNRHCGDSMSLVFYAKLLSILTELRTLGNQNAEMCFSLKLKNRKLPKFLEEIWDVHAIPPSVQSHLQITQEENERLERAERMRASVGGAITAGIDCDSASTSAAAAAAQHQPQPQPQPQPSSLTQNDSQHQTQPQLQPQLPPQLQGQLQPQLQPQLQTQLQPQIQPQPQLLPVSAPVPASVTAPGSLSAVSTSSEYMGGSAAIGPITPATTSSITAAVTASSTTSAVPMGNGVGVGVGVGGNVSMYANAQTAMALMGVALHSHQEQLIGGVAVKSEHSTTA
T1 sequence (P20153 1-508 partner): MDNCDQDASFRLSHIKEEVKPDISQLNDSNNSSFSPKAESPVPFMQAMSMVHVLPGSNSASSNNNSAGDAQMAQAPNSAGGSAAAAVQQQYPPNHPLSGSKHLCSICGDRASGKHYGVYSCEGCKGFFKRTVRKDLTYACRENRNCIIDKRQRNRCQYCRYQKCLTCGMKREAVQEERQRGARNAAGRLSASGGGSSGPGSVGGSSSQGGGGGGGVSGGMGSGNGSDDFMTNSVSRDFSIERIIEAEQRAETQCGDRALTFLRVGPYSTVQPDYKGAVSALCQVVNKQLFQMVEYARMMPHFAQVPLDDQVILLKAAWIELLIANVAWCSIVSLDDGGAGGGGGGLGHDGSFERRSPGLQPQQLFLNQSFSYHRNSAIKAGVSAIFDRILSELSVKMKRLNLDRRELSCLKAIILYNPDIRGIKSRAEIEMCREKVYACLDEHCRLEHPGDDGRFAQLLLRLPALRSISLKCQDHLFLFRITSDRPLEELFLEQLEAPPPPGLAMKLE
Test: Competitive 3H-ponasterone A binding assay, Kc cytosolic ecdysone receptor extract
Conditions: for EC50 / Kc log(1/EC50): Kc cells/extract; for EC50: read-out: Kc log(1/EC50) (converted); for Kd: read-out: Kd for Kc cells
Experimental: The dipteran cell line Kc167, originally derived from Drosophila embryos (see Echalier, G. and Ohanessian, A. (1969) C. R. Acad. Sci., 268, 1771) was obtained from Dr. Peter Cherbas (Indiana University) and maintained as described (Cherbas, L., et. al., (1994), Methods in Cell Biology, 44, 161-179). A 400 ml culture of Kc Cells (3×10^7 cells per ml) was centrifuged at 700×g for 10 minutes at room temperature to pellet the cells. The supernatant was aspirated and the pellet was resuspended in 70 ml of cold TM buffer (10 mM Tris, 5 mM MgCl2, 1 mM DTT, pH 7.2). After a 10 minute incubation on ice, the cells were centrifuged at 2,300×g. The supernatant was discarded. The cell pellet was frozen at −20° C. for 1 hour. The frozen cell pellet was thawed slowly on ice and homogenized in a cold Potter-Elvehjem homogenizer using a teflon pestle on a Caframo homogenizer motor, at setting 500 with 10 up and down strokes at 4° C. This slurry was centrifuged at 100,000×g in a swinging bucket rotor for 60 minutes. The supernatant, containing the cytosolic protein extract was diluted with T buffer (10 mM Tris, 1 mM DTT, pH 7.2) to a protein concentration of 5 mg/ml. This extract was used immediately for ligand binding assays.
^3H ponasterone A, a potent phytoecdysteroid, (66,000 dpm; specific activity 170 Ci/mmole; NEN Life Science Products, Boston, Mass.) was mixed with 100 μl Kc cytosolic or Plodia nuclear ecdysone receptor extracts in […] glass test tubes in the absence or presence of 10 μM unlabelled 20-hydroxyecdysone (20E) to obtain an estimate of total or non-specific respectively, binding of tritiated ponasterone A. The tubes were vortexed and incubated overnight at 4° C. for Kc cytosolic extracts or 1.5 hours for Plodia nuclear extracts for binding reactions to reach equilibrium. At the end of equilibrium binding times, the bound tritiated ponasterone A was separated from the unbound by addition of ice-cold 600 μl or 300 μl dextran-coated charcoal solution (500 mg of Sigma HCL-washed activated charcoal, 50 mg Pharmacia Dextran T70, 50 ml T-buffer) to Kc or Plodia extracts, respectively. The tubes were vortexed briefly and centrifuged at 7,000×g to pellet the charcoal. The supernatant, 600 μl or 300 μl for Kc or Plodia extract reactions, respectively, containing tritiated ponasterone A bound to proteins, was aspirated into liquid scintillation vials containing 5 ml scintillation cocktail (ReadySafe®, Beckmann) each The mixture was vortexed and the amount of total or non-specifically bound radioactivity measured in a Beckmann LS500 liquid scinitllation counter with a 60% counting efficiency for tritium.
The concentrations of competitors that inhibited 50% of tritiated ponasterone A binding (IC50) was determined by incubating Kc or Plodia nuclear extracts or extracts of bacteria producing CfEcR(CDEF)-GST and CfUSP-GST fusions proteins with ^3H-ponasterone A (66,000 dpm per reaction) in the presence of a range of concentrations (0.1 nM to 10 μM) of test compounds. In the case of binding reactions using bacterial fusion proteins, 20 or one μl extract of bacteria producing CfEcR(CDEF)-GST or CfUSP-GST fusion proteins, respectively, were included per binding reaction. The assay conditions and determination of total and non-specific binding was as described above. The volume of competitor in solvent, like that for 20E or solvent alone, was kept at 1% of total reaction volume by using a 100 fold concentrated stock solution (i.e. a 100 fold dilution of stock solutions). The remainder of the assay was as described above. Each reaction was carried out in duplicate per concentration per test compound. Specific binding of ^3H-ponasterone A was determined by subtracting non-specific binding (that obtained in the presence of 10 μM 20E) from total (no competitor) or competed radioactivity bound. The data for each test compound was analyzed using IGOR Pro software (WaveMetrics, Lake Oswego, Oreg.) to calculate IC50 value. […]

| SMILES | EC50 [µM] | Kd (Table 2) [µM] | Kd (Table 3) [µM] | Kc log(1/EC50) |
| --- | --- | --- | --- | --- |
| CCc1ccc(C(=O)NN(C(=O)c2cc(C)cc(C)c2)C(C)(C)C)cc1 [CE-1, N-(4-ethylbenzoyl)-N′-(3,5-dimethylbenzoyl)-N′-tert-butyl-hydrazine, reference compound] | 0.282 | 0.11 | 0.192 | – |
| CC(C)(C)N(NC(=O)c1ccccc1)C(=O)c1ccccc1 [CE-2, 1,2-dibenzoyl-1-tert-butyl-hydrazine, reference compound] | 3.02 | 2 | 2 | – |
| CC(C)CC[C@@H](O)[C@](C)(O)[C@H]1CC[C@@]2(O)C3=CC(=O)[C@]4(O)C[C@@H](O)[C@@H](O)C[C@]4(C)[C@H]3[C@H](O)C[C@]12C [CE-3, muristerone A, reference compound] | – | 0.0023 | 0.002 | 7.96 |
| CC(C)CC[C@@H](O)[C@](C)(O)[C@H]1CC[C@@]2(O)C3=CC(=O)[C@@H]4C[C@@H](O)[C@@H](O)C[C@]4(C)[C@H]3CC[C@]12C [CE-4, ponasterone A, reference compound] | – | 0.0007 | 0.0007 | – |
| CCc1c(OC)cccc1C(=O)NN(C(=O)c1cccc(OC)c1)C(C)(C)C [Ligand 1] | – | 0.0395 | 0.04 | 7.36 |
| Cc1cc(C)cc(C(=O)N(NC(=O)c2ccc3c(c2C)OCCO3)C(C)(C)C)c1 [Ligand 2] | – | 0.06 | 0.047 | 7.16 |
| COc1cccc(C(=O)NN(C(=O)c2cc(C)cc(C)c2)C(C)(C)C)c1C [Ligand 3] | – | 0.124 | 0.124 | 6.74 |
| CCc1c(OC)cccc1C(=O)NN(C(=O)c1cc(F)cc(F)c1)C(C)(C)C [Ligand 4] | – | 0.047 | 0.026 | 7.41 |
| CCc1c(OC)cccc1C(=O)NN(C(=O)c1cc(C)cc(C)c1)C(C)(C)C [Ligand 5] | – | 0.0133 | 0.013 | 7.70 |
| CCOc1cccc(C(=O)NN(C(=O)c2cc(C)cc(C)c2)C(C)(C)C)c1CC [Ligand 12] | – | 0.0053 | 0.005 | 8.10 |
| CCc1c(OC)cccc1C(=O)NN(C(=O)c1cc(Cl)cc(Cl)c1)C(C)(C)C [Ligand 13] | – | 0.065 | 0.024 | 7.44 |
